IC50 data for 7 compounds are collected here from patent publication US9340590B2 (priority 2011, dated 2016).

Holding throughout (assay): cell-based
One experiment concerns the target hNav1.7 (Homo sapiens, UniProt Q15858). It counts as cell-based. Particulars: IonWorks Quattro.
In another experiment the target is hNav1.5 (Homo sapiens, UniProt Q14524).
The target in the next experiment is hNav1.3 (Homo sapiens, UniProt Q9NY46). To be noted: IonWorks Quattro, read-out: IWQ Use Nav1.3.
[1] abbreviates: use-dependent, […], read-out: IWQ Use Nav1.7 (μm).
Where [2] appears, read: use-dependent block, hNav1.7, read-out: IWQ Use Nav1.7.
[3] abbreviates: IonWorks Quattro, use-dependent block, hNav1.5, read-out: IWQ Use Nav1.5.
The mark [4] stands for this setting: Table 23, use, […], read-out: IWQ Use Nav1.7.
The mark [5] stands for this setting: Table 23, IonWorks Quattro, use, […], read-out: IWQ Use Nav1.5.

Where two headings read alike, the source gives them in different places. Positions of bridges follow the written chain, without caps; N, C: chain ends. Non-standard residues stand in square brackets, D forms with d. Residues, ends and D or L forms follow the SMILES beside them. Arg(Me2s) = CN=C(NC)NCCC[C@H](N)C(=O)O; 2Pal = N[C@@H](Cc1ccccn1)C(=O)O

Chain of hNav1.7 (Q15858 whole entry, looked up): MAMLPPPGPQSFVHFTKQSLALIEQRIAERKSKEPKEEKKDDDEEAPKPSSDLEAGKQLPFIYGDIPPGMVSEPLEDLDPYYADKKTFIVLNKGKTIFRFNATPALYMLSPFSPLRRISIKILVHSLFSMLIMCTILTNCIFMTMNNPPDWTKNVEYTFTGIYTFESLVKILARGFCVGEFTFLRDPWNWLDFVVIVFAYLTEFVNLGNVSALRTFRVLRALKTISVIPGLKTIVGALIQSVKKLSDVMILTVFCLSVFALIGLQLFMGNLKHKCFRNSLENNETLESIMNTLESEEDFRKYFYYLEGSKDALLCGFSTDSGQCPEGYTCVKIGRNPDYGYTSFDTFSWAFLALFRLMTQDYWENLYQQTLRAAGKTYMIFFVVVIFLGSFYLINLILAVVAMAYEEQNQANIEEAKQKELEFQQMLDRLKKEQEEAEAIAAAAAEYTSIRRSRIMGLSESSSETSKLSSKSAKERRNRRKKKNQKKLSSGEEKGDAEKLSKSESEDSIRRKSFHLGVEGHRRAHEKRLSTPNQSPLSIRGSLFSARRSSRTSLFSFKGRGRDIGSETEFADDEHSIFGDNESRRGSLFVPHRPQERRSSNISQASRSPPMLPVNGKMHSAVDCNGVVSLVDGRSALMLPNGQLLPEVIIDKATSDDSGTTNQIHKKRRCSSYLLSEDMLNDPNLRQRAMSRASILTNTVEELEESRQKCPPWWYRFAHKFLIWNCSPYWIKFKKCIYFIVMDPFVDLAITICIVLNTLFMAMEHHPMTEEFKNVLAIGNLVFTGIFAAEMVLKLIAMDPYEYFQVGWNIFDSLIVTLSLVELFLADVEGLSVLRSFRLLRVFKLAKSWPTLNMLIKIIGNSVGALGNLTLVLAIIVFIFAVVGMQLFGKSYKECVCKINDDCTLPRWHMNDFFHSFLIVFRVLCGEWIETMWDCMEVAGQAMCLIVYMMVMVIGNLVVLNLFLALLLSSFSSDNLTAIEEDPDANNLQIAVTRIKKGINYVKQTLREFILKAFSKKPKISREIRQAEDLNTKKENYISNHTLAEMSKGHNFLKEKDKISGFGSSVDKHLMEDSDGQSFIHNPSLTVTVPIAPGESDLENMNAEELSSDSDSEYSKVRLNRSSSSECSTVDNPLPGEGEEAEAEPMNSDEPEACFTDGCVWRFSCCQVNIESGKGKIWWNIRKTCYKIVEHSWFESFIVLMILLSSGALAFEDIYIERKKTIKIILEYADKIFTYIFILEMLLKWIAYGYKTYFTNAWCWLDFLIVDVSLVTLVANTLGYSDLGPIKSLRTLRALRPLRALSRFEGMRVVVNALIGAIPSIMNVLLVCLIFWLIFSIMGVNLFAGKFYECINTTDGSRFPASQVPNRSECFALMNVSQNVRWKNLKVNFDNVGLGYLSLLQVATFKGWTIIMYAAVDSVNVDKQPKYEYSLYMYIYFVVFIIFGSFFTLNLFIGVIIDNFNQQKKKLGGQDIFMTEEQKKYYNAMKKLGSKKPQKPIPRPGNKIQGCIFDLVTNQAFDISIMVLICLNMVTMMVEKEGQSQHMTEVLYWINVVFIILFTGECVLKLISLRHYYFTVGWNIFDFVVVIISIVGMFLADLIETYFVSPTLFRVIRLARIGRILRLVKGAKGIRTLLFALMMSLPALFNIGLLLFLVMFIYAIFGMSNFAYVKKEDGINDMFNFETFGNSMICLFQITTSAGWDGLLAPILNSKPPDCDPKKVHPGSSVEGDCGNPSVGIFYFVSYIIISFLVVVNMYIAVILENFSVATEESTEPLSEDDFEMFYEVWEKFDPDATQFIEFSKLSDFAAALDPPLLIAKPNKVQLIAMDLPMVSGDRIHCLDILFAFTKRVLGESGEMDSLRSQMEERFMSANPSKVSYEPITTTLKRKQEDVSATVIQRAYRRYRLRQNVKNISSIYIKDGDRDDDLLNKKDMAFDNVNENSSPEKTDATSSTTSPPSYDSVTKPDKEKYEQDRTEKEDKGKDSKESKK
Chain of hNav1.3 (Q9NY46 whole entry, looked up): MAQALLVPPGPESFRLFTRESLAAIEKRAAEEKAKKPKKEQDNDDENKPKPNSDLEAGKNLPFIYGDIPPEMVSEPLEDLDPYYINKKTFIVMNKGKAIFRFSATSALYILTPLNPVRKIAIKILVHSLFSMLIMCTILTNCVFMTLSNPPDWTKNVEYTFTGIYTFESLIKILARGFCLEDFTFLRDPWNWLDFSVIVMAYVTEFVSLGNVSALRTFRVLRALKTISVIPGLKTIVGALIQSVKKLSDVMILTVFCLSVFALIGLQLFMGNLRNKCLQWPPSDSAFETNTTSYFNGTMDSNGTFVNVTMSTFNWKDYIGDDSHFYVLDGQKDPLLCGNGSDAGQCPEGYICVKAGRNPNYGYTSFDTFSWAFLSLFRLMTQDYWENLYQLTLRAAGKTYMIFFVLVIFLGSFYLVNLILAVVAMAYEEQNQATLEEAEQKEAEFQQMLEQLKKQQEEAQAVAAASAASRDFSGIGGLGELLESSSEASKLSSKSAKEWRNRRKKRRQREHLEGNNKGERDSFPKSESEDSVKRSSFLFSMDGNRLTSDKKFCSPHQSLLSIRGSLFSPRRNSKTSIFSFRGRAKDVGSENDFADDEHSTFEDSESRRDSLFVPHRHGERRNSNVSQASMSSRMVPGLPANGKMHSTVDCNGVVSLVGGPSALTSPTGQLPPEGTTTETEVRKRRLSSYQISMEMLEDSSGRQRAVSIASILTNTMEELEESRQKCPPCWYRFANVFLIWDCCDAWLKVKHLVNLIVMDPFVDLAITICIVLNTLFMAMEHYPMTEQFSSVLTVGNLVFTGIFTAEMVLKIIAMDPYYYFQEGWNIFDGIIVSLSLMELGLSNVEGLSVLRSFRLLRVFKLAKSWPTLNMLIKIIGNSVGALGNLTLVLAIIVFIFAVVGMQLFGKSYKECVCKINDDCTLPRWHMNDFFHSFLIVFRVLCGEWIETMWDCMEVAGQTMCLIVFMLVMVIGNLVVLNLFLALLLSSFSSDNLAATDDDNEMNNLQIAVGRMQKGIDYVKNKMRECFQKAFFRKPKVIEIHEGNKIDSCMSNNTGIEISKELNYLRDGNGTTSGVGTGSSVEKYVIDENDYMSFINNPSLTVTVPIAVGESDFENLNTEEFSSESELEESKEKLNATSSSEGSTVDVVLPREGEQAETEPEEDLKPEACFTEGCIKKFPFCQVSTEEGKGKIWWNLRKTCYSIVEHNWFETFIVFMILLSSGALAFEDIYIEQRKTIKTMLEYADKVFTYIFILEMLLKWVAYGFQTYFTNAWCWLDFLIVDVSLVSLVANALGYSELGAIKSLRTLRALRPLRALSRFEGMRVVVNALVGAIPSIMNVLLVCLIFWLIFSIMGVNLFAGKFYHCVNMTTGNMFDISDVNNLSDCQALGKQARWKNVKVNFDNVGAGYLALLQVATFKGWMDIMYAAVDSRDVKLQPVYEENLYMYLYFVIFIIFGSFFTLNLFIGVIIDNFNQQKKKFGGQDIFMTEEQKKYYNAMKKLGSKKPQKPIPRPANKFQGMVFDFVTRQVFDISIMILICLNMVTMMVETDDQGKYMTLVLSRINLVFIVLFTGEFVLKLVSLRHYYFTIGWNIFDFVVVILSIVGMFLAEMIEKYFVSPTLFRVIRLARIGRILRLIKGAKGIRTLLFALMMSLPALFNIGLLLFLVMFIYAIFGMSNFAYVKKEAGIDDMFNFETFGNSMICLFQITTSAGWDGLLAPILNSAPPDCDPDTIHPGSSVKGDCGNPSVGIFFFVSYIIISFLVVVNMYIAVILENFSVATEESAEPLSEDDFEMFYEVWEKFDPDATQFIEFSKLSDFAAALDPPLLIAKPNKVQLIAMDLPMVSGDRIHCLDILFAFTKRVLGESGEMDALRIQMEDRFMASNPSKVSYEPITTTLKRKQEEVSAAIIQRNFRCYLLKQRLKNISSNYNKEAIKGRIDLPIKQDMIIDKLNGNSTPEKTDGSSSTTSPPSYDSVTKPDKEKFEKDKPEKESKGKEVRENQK

On to `CC[C@H](C)[C@@H]1NC(=O)[C@@H]2CSSC[C@@H]3NC(=O)[C@H](C(C)C)NC(=O)[C@H](CC(C)C)NC(=O)[C@H](CC(N)=O)NC(=O)[C@@H]4CCCN4C(=O)[C@H](CCCNC(=N)N)NC(=O)[C@H](CSSC[C@H](NC(=O)[C@@H](N)CC(=O)O)C(=O)N[C@@H](CC(C)C)C(=O)NCC(=O)N[C@@H](Cc4ccccc4)C(=O)N[C@@H](CCSC)C(=O)N[C@@H](CCCNC(=N)N)C(=O)N[C@@H](CCCCN)C(=O)N2)NC(=O)[C@H](CSSC[C@@H](C(=O)N[C@@H](CCCCN)C(=O)N[C@@H](Cc2ccc(O)cc2)C(=O)N[C@H](C(=O)N[C@@H](Cc2ccccc2)C(=O)N[C@@H](Cc2c[nH]c4ccccc24)C(=O)O)C(C)C)NC(=O)[C@H](Cc2c[nH]c4ccccc24)NC(=O)[C@H](CCCCN)NC(=O)[C@H](Cc2c[nH]cn2)NC(=O)[C@H]([C@@H](C)O)NC(=O)[C@H](CCCNC(=N)N)NC(=O)[C@H](CO)NC3=O)NC(=O)[C@H](CCCCN)NC(=O)[C@H](CC(=O)O)NC(=O)[C@H](CC(N)=O)NC(=O)[C@H](CC(=O)O)NC(=O)[C@@H]2CCCN2C1=O` [compound 133], for which the IC50 at hNav1.7 (setting [1]) came out at 0.48 µM; on hNav1.5 (IonWorks Quattro, use-dependent, […], read-out: IWQ Use Nav1.5), 8.28 µM; on hNav1.3 (use-dependent, […]), 0.11 µM.
Regarding `CCCC[C@@H]1NC(=O)[C@H](C)NC(=O)CNC(=O)[C@H](CC(C)C)NC(=O)[C@@H](NC(=O)[C@@H](N)CC(=O)O)CSSC[C@@H]2NC(=O)[C@@H]3CSSC[C@@H](C(=O)N[C@@H](CCCCN)C(=O)N[C@@H](Cc4ccc(O)cc4)C(=O)N[C@H](C(=O)N[C@@H](Cc4ccccc4)C(N)=O)C(C)C)NC(=O)[C@H](Cc4c[nH]c5ccccc45)NC(=O)[C@H](CCCCN)NC(=O)[C@H](Cc4cnc[nH]4)NC(=O)[C@H]([C@@H](C)O)NC(=O)[C@H](CCCNC(=N)N)NC(=O)[C@H](CO)NC(=O)[C@H](CSSC[C@H](NC(=O)[C@H](CCCCN)NC(=O)[C@H](CCCNC(=N)N)NC1=O)C(=O)N[C@@H]([C@@H](C)CC)C(=O)N1CCC[C@H]1C(=O)N[C@@H](CC(=O)O)C(=O)N[C@@H](CC(N)=O)C(=O)N[C@@H](CC(=O)O)C(=O)N[C@@H](CCCCN)C(=O)N3)NC(=O)[C@H](C(C)C)NC(=O)[C@H](CC(C)C)NC(=O)[C@H](CC(N)=O)NC(=O)[C@@H]1CCCN1C(=O)[C@H](CCCNC(=N)N)NC2=O` [compound 721], the IC50 on hNav1.7 (setting [2]) came out at 0.15 µM; on hNav1.5 (setting [3]), 45 µM; on hNav1.3 (use-dependent block, hNav1.3) it was 0.41 µM.
Regarding `CC[C@H](C)[C@@H]1NC(=O)[C@@H]2CSSC[C@@H]3NC(=O)[C@H](C(C)C)NC(=O)[C@H](CC(C)C)NC(=O)[C@H](CC(N)=O)NC(=O)[C@@H]4CCCN4C(=O)[C@H](CCCNC(=N)N)NC(=O)[C@H](CSSC[C@H](NC(=O)[C@@H](N)CC(=O)O)C(=O)N[C@@H](CC(C)C)C(=O)NCC(=O)N[C@@H](Cc4ccccc4)C(=O)N[C@@H](CCSC)C(=O)N[C@@H](CCCNC(=N)N)C(=O)N[C@@H](CCCCN)C(=O)N2)NC(=O)[C@H](CSSC[C@@H](C(=O)N[C@@H](CCCCN)C(=O)N[C@@H](Cc2ccc(O)cc2)C(=O)N[C@H](C(=O)N[C@@H](Cc2ccccc2)C(N)=O)C(C)C)NC(=O)[C@H](Cc2c[nH]c4ccccc24)NC(=O)[C@H](CCCCN)NC(=O)[C@H](CCCNC(=NC)NC)NC(=O)[C@H]([C@@H](C)O)NC(=O)[C@H](CCCNC(=N)N)NC(=O)[C@H](CO)NC3=O)NC(=O)[C@H](CCCCN)NC(=O)[C@H](CC(=O)O)NC(=O)[C@H](CC(N)=O)NC(=O)[C@H](CC(=O)O)NC(=O)[C@@H]2CCCN2C1=O` [compound 353] (H-DCLGFMRKCIPDNDKCCRPNLVCSRT[Arg(Me2s)]KWCKYVF-NH2; disulfide 2-17, 9-23, 16-30), the IC50 came out at 2 µM at hNav1.7 (setting [4]); 8.32 µM on hNav1.5 (setting [5]); 2.42 µM at hNav1.3 (Table 23, use, […]).
As to `CC[C@H](C)[C@@H]1NC(=O)[C@@H]2CSSC[C@@H]3NC(=O)[C@H](C(C)C)NC(=O)[C@H](CC(C)C)NC(=O)[C@H](CC(N)=O)NC(=O)[C@@H]4CCCN4C(=O)[C@H](CCCNC(=N)N)NC(=O)[C@H](CSSC[C@H](NC(=O)[C@@H](N)CC(=O)O)C(=O)N[C@@H](CC(C)C)C(=O)NCC(=O)N[C@@H](Cc4ccccc4)C(=O)N[C@@H](CCSC)C(=O)N[C@@H](CCCNC(=N)N)C(=O)N[C@@H](CCCCN)C(=O)N2)NC(=O)[C@H](CSSC[C@@H](C(=O)N[C@@H](CCCCN)C(=O)N[C@@H](Cc2ccc(O)cc2)C(=O)N[C@H](C(=O)N[C@@H](Cc2ccccc2)C(=O)N[C@@H](CCC(=O)O)C(N)=O)C(C)C)NC(=O)[C@H](Cc2c[nH]c4ccccc24)NC(=O)[C@H](CCCCN)NC(=O)[C@H](Cc2c[nH]cn2)NC(=O)[C@H]([C@@H](C)O)NC(=O)[C@H](CCCNC(=N)N)NC(=O)[C@H](CO)NC3=O)NC(=O)[C@H](CCCCN)NC(=O)[C@H](CC(=O)O)NC(=O)[C@H](CC(N)=O)NC(=O)[C@H](CC(=O)O)NC(=O)[C@@H]2CCCN2C1=O` [compound 35], the IC50 at hNav1.7 (setting [1]) came to 4.47 µM; against hNav1.5 (IWQ Use Nav1.5 (μM)) it was 19.6 µM; at hNav1.3 (use-dependent, […]) it was 2.47 µM.
As to `CC[C@H](C)[C@@H]1NC(=O)[C@@H]2CSSC[C@@H]3NC(=O)[C@H](C(C)C)NC(=O)[C@H](CC(C)C)NC(=O)[C@H](CC(N)=O)NC(=O)[C@@H]4CCCN4C(=O)[C@H](CCCNC(=N)N)NC(=O)[C@H](CSSC[C@H](NC(=O)[C@@H](N)CC(=O)O)C(=O)N[C@@H](CC(C)C)C(=O)NCC(=O)N[C@@H](C)C(=O)N[C@@H](CC(C)C)C(=O)N[C@@H](CCCNC(=N)N)C(=O)N[C@@H](CCCCN)C(=O)N2)NC(=O)[C@H](CSSC[C@@H](C(=O)N[C@@H](CCCCN)C(=O)N[C@@H](Cc2ccc(O)cc2)C(=O)N[C@H](C(=O)N[C@@H](Cc2ccccc2)C(=O)O)C(C)C)NC(=O)[C@H](Cc2c[nH]c4ccccc24)NC(=O)[C@H](CCCCN)NC(=O)[C@H](Cc2c[nH]cn2)NC(=O)[C@H]([C@@H](C)O)NC(=O)[C@H](CCCNC(=N)N)NC(=O)[C@H](CO)NC3=O)NC(=O)[C@H](CCCCN)NC(=O)[C@H](CC(=O)O)NC(=O)[C@H](CC(N)=O)NC(=O)[C@H](CC(=O)O)NC(=O)[C@@H]2CCCN2C1=O` [compound 600] (H-DCLGALRKCIPDNDKCCRPNLVCSRTHKWCKYVF-OH; disulfide 2-17, 9-23, 16-30), the IC50 was more than 5 µM at hNav1.7 (setting [2]); 12.6 µM at hNav1.5 (setting [3]); 3.1 µM at hNav1.3 (use-dependent block, hNav1.3).
For `CC[C@H](C)[C@@H]1NC(=O)[C@@H]2CSSC[C@@H]3NC(=O)[C@H](C(C)C)NC(=O)[C@H](CC(C)C)NC(=O)[C@H](CC(N)=O)NC(=O)[C@@H]4CCCN4C(=O)[C@H](CCCNC(=N)N)NC(=O)[C@H](CSSC[C@H](NC(=O)[C@@H](N)CC(=O)O)C(=O)N[C@@H](CC(C)C)C(=O)NCC(=O)N[C@@H](Cc4ccccc4)C(=O)N[C@@H](CCSC)C(=O)N[C@@H](CCCNC(=N)N)C(=O)N[C@@H](CCCCN)C(=O)N2)NC(=O)[C@H](CSSC[C@@H](C(=O)N[C@@H](CCCCN)C(=O)N[C@@H](Cc2ccc(O)cc2)C(=O)N[C@H](C(=O)N[C@@H](Cc2ccccc2)C(N)=O)C(C)C)NC(=O)[C@H](Cc2c[nH]c4ccccc24)NC(=O)[C@H](CCCCN)NC(=O)[C@H](Cc2ccccn2)NC(=O)[C@H]([C@@H](C)O)NC(=O)[C@H](CCCNC(=N)N)NC(=O)[C@H](CO)NC3=O)NC(=O)[C@H](CCCCN)NC(=O)[C@H](CC(=O)O)NC(=O)[C@H](CC(N)=O)NC(=O)[C@H](CC(=O)O)NC(=O)[C@@H]2CCCN2C1=O` [compound 352] (H-DCLGFMRKCIPDNDKCCRPNLVCSRT[2Pal]KWCKYVF-NH2; disulfide 2-17, 9-23, 16-30), the IC50 on hNav1.7 (setting [4]) was determined as 0.09 µM; on hNav1.5 (setting [5]) it was 7.82 µM; at hNav1.3 (Table 23, use, […]) it was 0.05 µM.
As for `CC[C@H](C)[C@@H]1NC(=O)[C@@H]2CSSC[C@@H]3NC(=O)[C@H](C(C)C)NC(=O)[C@H](CC(C)C)NC(=O)[C@H](CC(N)=O)NC(=O)[C@@H]4CCCN4C(=O)[C@H](CCCNC(=N)N)NC(=O)[C@H](CSSC[C@H](NC(=O)[C@@H](N)CC(=O)O)C(=O)N[C@@H](CC(C)C)C(=O)NCC(=O)N[C@@H](C)C(=O)N[C@@H](CCSC)C(=O)N[C@@H](CCCNC(=N)N)C(=O)N[C@@H](CCCCN)C(=O)N2)NC(=O)[C@H](CSSC[C@@H](C(=O)N[C@@H](CCCCN)C(=O)N[C@@H](Cc2ccc(O)cc2)C(=O)N[C@H](C(=O)N[C@@H](Cc2ccccc2)C(N)=O)C(C)C)NC(=O)[C@H](Cc2c[nH]c4ccccc24)NC(=O)[C@H](CC(=O)O)NC(=O)[C@H](Cc2c[nH]cn2)NC(=O)[C@H]([C@@H](C)O)NC(=O)[C@H](CCCNC(=N)N)NC(=O)[C@H](CO)NC3=O)NC(=O)[C@H](CCCCN)NC(=O)[C@H](CC(=O)O)NC(=O)[C@H](CC(N)=O)NC(=O)[C@H](CC(=O)O)NC(=O)[C@@H]2CCCN2C1=O` [compound 769] (H-DCLGAMRKCIPDNDKCCRPNLVCSRTHDWCKYVF-NH2; disulfide 2-17, 9-23, 16-30), the IC50 at hNav1.7 (setting [2]) was more than 5 µM; on hNav1.5 (setting [3]), 39 µM; on hNav1.3 (use-dependent block, hNav1.3), more than 5 µM.
